# Results reported in US20240024372A1, “COMPOUNDS AND METHODS TO TREAT CYSTIC FIBROSIS” (City of Hope, priority 2020, published 2024).
# Test system: HuBEC cells
# Test: Uptake of BODIPY-labeled exosomes by HuBEC (light microscopy)
# Assay type: cell-based, human
# Conditions: HuBEC pre-treated with 200 μM Genistein, 37° C., 30 minutes, then BODIPY-labeled MSC-derived CFZF-VPR exosomes 3 h
# Protocol: FIGS. 7A-7B show exosome uptake inhibition. FIG. 7A: To study the pathway of exosome uptake, HuBEC cells were pre-treated with 200 μM of Genistein and incubated at 37° C. for 30 minutes before exosome addition, and then incubated with BODIPY-labeled exosomes at 37° C. for 3 h. FIG. 7B: Uptake was quantified by determining the percentage of BODIPY-fluorescence intensity.
# Exosome labeling. Exosomal membrane was labeled with BODIPY TR ceramide, according to the manufacturer's protocol (Molecular Probes/Invitrogen Life Technologies, Carlsbad, California, USA). Briefly, 5e+10 exosomes were stained with 10 μmol/L BODIPY TR ceramide. Excess fluorescent dye was removed by using Exosome Spin Columns (Life Technologies, Carlsbad, California, USA). BODIPY-labeled exosomes were dropped on 10e+3 cells and incubated in exosome depleted medium at 37° C. and 5% CO2. Bodipy-labeled exosomes uptake was evaluated by light microscopy.
# Light microscopy and imaging. Cells were cultivated fixed with BD cytofix/Cytoperm™ fixation/permeabilization Kit (Cat. No. 554715 BD bioscience, Franklin Lakes, NJ, USA) at room temperature for 20 minutes and then stained with fluorescent 488-Phalloidin (green) for actin using the manufacturer's recommendations (Molecular Probes/Invitrogen Life Technologies). Fluorescence images were collected on Zeiss LSM-700 confocal microscope. […]
smiles,measurement,value
O=c1c(-c2ccc(O)cc2)coc2cc(O)cc(O)c12 [genistein],inhibition of exosome uptake (BODIPY-fluorescence intensity),inhibition of the MSC derived CFZF-VPR exosome uptake
